Experimental data published in article PMC2119788 (The Journal of Cell Biology, 1993).

Legend:
[1] = tested on: A-1 fibroblasts; conditions: previous report; ref Roch et al., 1992; cited from earlier work
[2] = tested on: A-1 cells; assay type: cell-based; conditions: included in the assay media at 100 ug/ml; data not shown

Substance | Activity on the A-1 cell growth assay [1] | Inhibition of the growth-promoting effect of 17-mer or KB75 [2]
TPDAVDKYLETPGDENEHAHFQKAKERLEAKHRERMSQVM [40-mer] | active | –
heparan sulfate | – | failed to inhibit
heparin | – | failed to inhibit
